These results are taken from US20230234920A1, “Azirine Containing Compounds as Anti-Angiogenesis Agents and a Process for the Preparation Thereof” (COUNCIL OF SCIENTIFIC & INDUSTRIAL RESEARCH, priority 2020, published 2023).

By AUC(0-inf) is commonly meant total exposure, with the tail of the curve extrapolated. Low readings indicate less exposure, high ones more exposure. The term half-life denotes the time needed for the level to fall by half in the phase considered. High values mean slow decline, low ones rapid decline. As a reminder, the Cmax is the maximum level reached in the sampled fluid or tissue. As a reminder, the MRT is a mean duration of stay, worked out from the concentration-time curve. As usually defined, the Tmax is the time from dosing to the highest level. The IC50 is the concentration that gives 50% inhibition.

Structures are written as SMILES. Like-named read-outs stand apart in the source and are kept apart here.

Data set [1] is described as follows: Intramuscular pharmacokinetic study of bulk compound 1 and chiral isomers. The class given is in vivo, male Sprague Dawley (SD) rats. To be noted: IM 20 mg/kg. The procedure:
In vivo pharmacokinetic study was performed in male Sprague Dawley (SD) rats (n=4). Intramuscular (IM) formulation of bulk of compound 1 as well as chiral isomer-1 and chiral isomer-2 was prepared by dissolving accurately weighed quantity of compound 1 (20 mg) in 1 mL of olive oil followed by vortexing for 2 min and sterilize through syringe filter. Blood samples were collected from the retro orbital plexus of rats under light ether anesthesia into microfuge tubes containing heparin as an anti-coagulant at 0.25, 0.5, 1, 3, 5, 7, 9, 24, 30, 48 and 72 hours post-dosing after intramuscular dose. Plasma sample was harvested by centrifuging the blood at 13000 rpm for 10 min on Sigma 1-15 K (Frankfurt, Germany) and stored frozen at −70±10° C. until bioanalysis. Each plasma sample (100 μl) was processed using protein precipitation method using 200 μl acetonitrile containing medicarpine as internal standard (I.S.) as protein precipitant, and 10 μl of the supernatant was injected for LC-MS/MS.

Data set [2] is described as follows: Intramuscular pharmacokinetic study of chiral isomers 1 and 2. The data set is classed as in vivo, male Sprague Dawley (SD) rats. To be noted: IM 20 mg/kg. The procedure: In vivo pharmacokinetic study was performed in male Sprague Dawley (SD) rats (n=4). Intramuscular (IM) formulation of compound 1 Chiral 1 and 2 were prepared by individually dissolving accurately weighed quantity of compound 1, chiral isomers 1 and 2 (20 mg) in 1 mL of olive oil followed by vortexing for 2 min and sterilize through syringe filter. Blood samples were collected from the retro orbital plexus of rats under light ether anesthesia into microfuge tubes containing heparin as an anti-coagulant at 0.25, 0.5, 1, 3, 5, 7, 9, 24, 30, 48 and 72 hours post-dosing after intramuscular dose. Plasma sample was harvested by centrifuging the blood at 13000 rpm for 10 min on Sigma 1-15 K (Frankfurt, Germany) and stored frozen at −70±10° C. until bioanalysis. Each plasma sample (100 μl) was processed using protein precipitation method using 200 μl acetonitrile containing medicarpine as internal standard (I.S.) as protein precipitant, and 10 μl of the supernatant was injected for LC-MS/MS.

The subject of a further data set is HUVECs. The experiment in a line: Capillary-like tube formation assay (tubulogenesis). The data set is classed as cell-based, human. To be noted: for tubule formation: 6 h; for IC50: Homo sapiens, HUVEC, read-out: IC50 value; for remarks: remark on IC50 versus sunitinib. The procedure: FIG. 2 represents effect of Compound 1 on capillary tube formation of HUVECs. Endothelial cells in Matrigel were incubated with ECM basal medium in the presence of compound 1 at the indicated concentrations for 6 h. Cell viability was assessed by Calcein-AM dye added few min. before the completion of 6 h. then photographs at 10×magnification were taken using an inverted microscope. The tubule length of HUVECs was quantified by Leica QWin software. Tubule network formation is expressed as a percentage of that vehicle (0.1% DMSO) treated cells (control).
FIG. 9 represents effect of racemic mixture (chiral isomer 1-1 and chiral isomer 2-1) of Compound 1 on capillary tube formation of HUVECs. Endothelial cells seeded in matrigel were incubated at the indicated concentrations of compound 1 racemic mixtures (1-1 and 2-1) with ECM basal medium for 6 h. Calcein-AM treatment was added to the ECs few minutes before completion of 6 h and pictures were captured using an inverted microscope at 10×magnification. The tubular structures of HUVECs were measured using Leica QWin software and tubulogenesis was expressed as a % of that vehicle (0.1% DMSO) treated cells (control) well.
HUVEC cells were incubated with or without sunitinib (20 nM) for 6 h at indicated concentrations of chiral isomers of Compound 1 (1-1 and 2-1). Photographs were taken using an inverted microscope at 10×magnification after Calcein-AM treatment to the ECs few minutes before completion of 6 h. The tubule length of HUVECs was quantified by Leica QWin software represented as a % of that vehicle (0.1% DMSO) treated cells (control) well.
To examine the effect of Compound 1 on angiogenesis, capillary tube formation assay was performed on regular or reduced growth factor Matrigel, taking VEGF (50 ng/mL) treated cells as a positive control and sunitinib (50 nM) as a negative control (FIG. 2). HUVECs seeded onto the matrigel with compound 1 at different concentrations of (10 μM, 5 μM, 1 μM, 800 nM, 500 nM, 250 nM, 125 nM, 75 nM, 50 nM, 25 nM and 10 nM) were incubated for six hours.
HUVECs (Human Umbilical Vein Endothelial Cells) were seeded onto the pre-coated matrigel (CORNING; 354230) in 96 wells plate at the rate of 11000 cells/well in incomplete ECM basal medium. Control group received vehicle, VEGF at 50 ng/mL as a positive and sunitinib at 50 nM as a negative control were used. Compound 1 at different dose concentrations (10 μM, 5 μM, 1 μM, 800 nM, 500 nM, 250 nM, 100 nM, 75 nM, 50 nM and 25 nM) were employed on seeded HUVECs in incomplete medium. Post 6 h of incubation Calcein-AM (Invitrogen) was added to all the respective groups and then the tubule pattern was observed and photographs were taken using an inverted fluorescent microscope (DM 6000, Leica Microsystems, USA). Relative tubule lengths were measured using Leica Q-Win software version 3.5.1. (Leica Microsystems, Switzerland).

Setting [3] is: male, Sprague-Dawley, rat, plasma, intramuscular, 0.25 h.
Setting [4] is: male, Sprague-Dawley, rat, plasma, intramuscular, 0.5 h.
The mark [5] stands for this setting: male, Sprague-Dawley, rat, plasma, intramuscular, 1 h.
The mark [6] stands for this setting: male, Sprague-Dawley, rat, plasma, intramuscular, 3 h.
The mark [7] stands for this setting: male, Sprague-Dawley, rat, plasma, intramuscular, 5 h.
[8] abbreviates: male, Sprague-Dawley, rat, plasma, intramuscular, 7 h.
[9] abbreviates: male, Sprague-Dawley, rat, plasma, intramuscular, 9 h.
The mark [10] stands for this setting: male, Sprague-Dawley, rat, plasma, intramuscular, 24 h.
[11] abbreviates: male, Sprague-Dawley, rat, plasma, intramuscular, 30 h.
[12] abbreviates: male, Sprague-Dawley, rat, plasma, intramuscular, 48 h.
[13] abbreviates: male, Sprague-Dawley, rat, plasma, intramuscular, 72 h.
The mark [14] stands for this setting: male, Sprague-Dawley, rat, plasma, mean ± S.D., n = 4.
The mark [15] stands for this setting: male, Sprague-Dawley, rat, plasma, mean ± S.D., n = 4, read-out: AUC0-72.
Where [16] appears, read: male, Sprague-Dawley, rat, plasma, mean ± S.D., n = 4, read-out: Cmax.
Where [17] appears, read: endothelial tubule network assay, anti-angiogenic activity.

On to `CCOC(=O)[C@H]1N=C1CCc1ccc(OC)cc1` (single isomer, unassigned) [Chiral isomer (1-1)], for which the Cl in data set [1] (mean ± S.D., n = 4) is 3.03 ± 0.415 mL/min/kg; in data set [2] (mean ± S.D., n = 4), 2.67 ± 0.5 mL/min/kg. Also, the Vd was determined as 4.273 ± 1.167 L/kg in data set [1] (mean ± S.D., n = 4) and 3.2 ± 0.84 L/kg in data set [2] (mean ± S.D., n = 4). The concentration at 0.25 h in data set [1] (setting [3]) came to 1680 ± 1060 ng/mL. This molecule also had a concentration at 0.5 h in data set [1] (setting [4]) of 2090 ± 1650 ng/mL. The same molecule registered a concentration at 1 h in data set [1] (setting [5]) of 2580 ± 1960 ng/mL. The molecule further had a concentration at 3 h in data set [1] (setting [6]) of 2560 ± 590 ng/mL. The molecule also registered a concentration at 5 h in data set [1] (setting [7]) of 2460 ± 880 ng/mL. The concentration at 7 h in data set [1] (setting [8]) was 2120 ± 940 ng/mL. In data set [1] (setting [9]), this molecule yielded a concentration at 9 h of 3440 ± 260 ng/mL. For the same molecule, the concentration at 24 h in data set [1] (setting [10]) came out at 2470 ± 570 ng/mL. In addition, in data set [1] (setting [11]), the concentration at 30 h stood at 1730 ± 150 ng/mL. The molecule also displayed a concentration at 48 h in data set [1] (setting [12]) of 593 ± 220 ng/mL. This molecule also had a concentration at 72 h in data set [1] (setting [13]) of 109 ± 40 ng/mL. The AUC(0-inf) in data set [1] (setting [14]) was 111 ± 15 µg·h/mL; in data set [2] (setting [14]), 121 ± 24.1 µg·h/mL. The half-life in data set [1] (setting [14]) is 16 ± 2.38 h; in data set [2] (setting [14]) it was 13.3 ± 1.51 h. In addition, the AUC(0-t) in data set [1] (setting [15]) was found to be 108 ± 15.9 µg·h/mL; in data set [2] (setting [15]), 118 ± 24.8 µg·h/mL. Further, the figures for the peak concentration (Cmax) in data set [1] (setting [16]) and in data set [2] (setting [16]) were 3910 ± 847 ng/mL and 4810 ± 1560 ng/mL, respectively. Also, the MRT in data set [1] (male, Sprague-Dawley, rat, plasma, mean ± S.D., n = 4, read-out: MRT) was found to be 21 ± 0.463 h. The Tmax amounted to 6.33 ± 4.62 h in data set [1] (male, Sprague-Dawley, rat, plasma, mean ± S.D., n = 4, read-out: Tmax) and 9 h in data set [2] (male, Sprague-Dawley, rat, plasma, read-out: Tmax).
On to `CCOC(=O)[C@H]1N=C1CCc1ccc(OC)cc1` [Chiral isomer (1-1)], for which the concentration at 0.25 h in data set [2] (setting [3]) came out at 1520 ± 360 ng/mL. Also, the concentration at 0.5 h in data set [2] (setting [4]) came out at 2150 ± 830 ng/mL. Besides, the concentration at 1 h in data set [2] (setting [5]) was 3020 ± 1330 ng/mL. In data set [2] (setting [6]), the concentration at 3 h amounted to 3170 ± 940 ng/mL. In data set [2] (setting [7]), this molecule had a concentration at 5 h of 3570 ± 100 ng/mL. In data set [2] (setting [8]), this molecule displayed a concentration at 7 h of 3580 ± 750 ng/mL. The concentration at 9 h in data set [2] (setting [9]) was 4810 ± 1560 ng/mL. The molecule further came in with a concentration at 24 h in data set [2] (setting [10]) of 1930 ± 380 ng/mL. Besides, the concentration at 30 h in data set [2] (setting [11]) was found to be 1550 ± 360 ng/mL. Further, in data set [2] (setting [12]), the concentration at 48 h is 545 ± 90 ng/mL. The molecule also returned a concentration at 72 h in data set [2] (setting [13]) of 110 ± 40 ng/mL. In addition, the tubule formation result in the data set on HUVECs (100 nM combined with sunitinib at 20 nM) is recorded as “approximately 15%”; in the data set with HUVECs (250 nM) it was 100%; in the data set with HUVECs (500 nM) it was 50%; in the data set with HUVECs (1 μM), 50%.
Regarding `CCOC(=O)C1N=C1CCCc1ccc2oc3ccccc3c2c1` (centres unmarked) [Compound 44, Ethyl 3-(3-(dibenzo[b,d]furan-2-yl)propyl)-2H-azirine-2-carboxylate], the IC50 in the data set on HUVECs (setting [17]) was determined as 250 nM.
For `CCOC(=O)C1N=C1CCCc1ccc2c(c1)CCCO2` (centres unmarked) [Compound 45, Ethyl 3-(3-(chroman-6-yl)propyl)-2H-azirine-2-carboxylate], in the data set with HUVECs (setting [17]), the IC50 amounted to 100 nM. Also, the remarks entry in the data set on HUVECs is given as “comparable to sunitinib”.
As for `CCOC(=O)C1N=C1CCc1ccc(N(C)C)cc1` (centres unmarked) [Compound 47, Ethyl 3-(4-(dimethylamino)phenethyl)-2H-azirine-2-carboxylate], the IC50 in the data set with HUVECs (setting [17]) was 500 nM.
As to `COc1ccc(CCC2=NC2C#N)cc1` (centres unmarked) [Compound 48, 3-(4-Methoxyphenethyl)-2H-azirine-2-carbonitrile], in the data set on HUVECs, the IC50 was found to be 250 nM.
Turning to `CCOP(=O)(OCC)C1N=C1CCc1ccc(OC)cc1` (centres unmarked) [Compound 49, Diethyl (3-(4-methoxyphenethyl)-2H-azirin-2-yl)phosphonate], the IC50 in the data set with HUVECs was found to be 250 nM.
`CCOC(=O)C1N=C1CCc1ccc(OC2CCOC2)cc1` (centres unmarked) [Compound 50, Ethyl 3-(4-((tetrahydrofuran-3-yl)oxy)phenethyl)-2H-azirine-2-carboxylate]: the IC50 in the data set on HUVECs (setting [17]) was 250 nM.
Consider `COc1ccc(CCC2=NC2c2nnn[nH]2)cc1` (centres unmarked) [Compound 51, 5-(3-(4-Methoxyphenethyl)-2H-azirin-2-yl)-1H-tetrazole], for which the half-inhibitory concentration (IC50) with HUVECs (setting [17]) stood at 100 nM. The remarks result in the data set with HUVECs is reported as “comparable to sunitinib”.
